The results in this text go back to patent publication US9745348B2 (The University of Manchester, priority 2011, dated 2017).

Read-outs that look alike come from different tables or passages of the source. Where a SMILES comes first, the peptide text is derived from it. Where no end group is shown, it is not given here. [ ]: non-standard residue; d: D form. Orn = NCCC[C@H](N)C(=O)O

The test system of data set [1] is HeLa and HL60 cancer cell lines. The conditions noted are these: 24 h.
Experimental: Antitumor activities of peptides were measured using the 3-(4,5-dimethylthiazol-2-yl)-2,-diphenyl tetrazolium bromide (MTT) assay, and the IC50 value was calculated as the concentration of peptide that induced 50% growth inhibition compared to the untreated control.
HeLa and HL60 cells were seeded in 96-well plates (10^5 cells/well) in a complete medium [Iscove's modified dulbecco's medium (IMDM)] with 10% fetal bovine serum (FBS) for 24 h before peptide treatment. […] Following incubation with peptides, 20 μL of a 5 mg/ml solution MTT reagent was added to each well and incubated for 4 h at 37° C. After removing the supernatant, 150 μL of dimethyl sulfoxide (DMSO) was added to dissolve the formazan crystals that remained in the wells. The absorbance was determined using a microplate ELISA Reader at 570 nm. Wells without cells for blanking the spectrophotometer and the cells without peptides were taken as negative controls.
Data set [2] in a line: in vitro. The conditions noted are these: human, neonatal fibroblasts (HDFn cells). The format is cell-based. The protocol: (§1) MTT assay: Cell viability and proliferation is widely assessed by the MTT assay as already described previously.
The fibroblasts cells, Neonatal (HDFn) and Adult (HDFa), were both grown until greater than 80% confluent. The cells were then harvested and seeded into micro well plate at cell densities of 5000 cells/well in a volume […] of medium. After 24 hour incubation the culture medium was replaced with fresh medium containing an appropriate amount of the peptide for investigation.

Data set [3] can be described thus: MTT viability of fibroblasts over three days. Type of data set: cell-based, human. The conditions noted are these: human, adult fibroblasts (HDFa cells). The protocol: as §1
(§2) The fibroblasts cells, Neonatal (HDFn) and Adult (HDFa), were both grown until greater than 80% confluent. […] After 24 hour incubation the culture medium was replaced with fresh medium containing an appropriate amount of the peptide for investigation.
(§3) The viability of the fibroblasts, Adult (HDFa) and Neonatal (HDFn) cells in the presence of surfactants was tested by MTT assay over three days relative to control wells containing cells only.

Data set [4] has as its system human red blood cells (hRBCs). The experiment in a line: Hemolytic activity, hemoglobin release. Type of data set: cell-based. The conditions noted are these: up to 250 μM, 1 h at 37° C. The protocol:
Peptide hemolytic activities were measured by determining hemoglobin release by 4% (v/v) suspensions of fresh human erythrocytes at 540 nm. Fresh human red blood cells (hRBCs) from volunteers were centrifuged and washed three times with PBS (pH7.4). 100 μL of hRBCs suspended in PBS at 8% (v/v) were mixed with 100 µL of different series of 2-fold diluted peptides in a sterile 96-well plate. The plates were incubated for 1 h at 37° C., and centrifuged at 1000 g for 5 min. 100 μL aliquots of the supernatant were transferred to new 96-well plates, and hemoglobin release monitored by measuring supernatant absorbance at 540 nm with a microplate ELISA Reader. As negative and positive controls, hRBCs in PBS and 0.1% Triton X-100 were employed. The hemolysis percentage was calculated using the follow equation: % hemolysis=[(Abs540 nm with peptide−Abs540 nm in PBS)/[(Abs540 nm with 0.1% Triton X-100−Abs540 nm in PBS)×100 Observing Bacterial Membrane Lysis by Fluorescence Microscopy

Data set [5] relates to E. coli, (EC) and S. aureus, (SA). The experiment in a line: Bacterial growth by optical density, statements for both bacteria. Type of data set: cell-based, Escherichia coli; Staphylococcus aureus. The note with it: 1 wt %; for antibacterial activity of surfactant alone: both SA and EC. The protocol: Bacteria E. coli, (EC) and S. aureus, (SA) were grown in LB media at 37° C. with continuous shaking for 24 hours. The bacterial concentration was then adjusted such that the absorbance at 600 (A600) was controlled to ca 0.2 unit. The bacteria suspensions with the peptides were incubated in 96-well tissue culture plates. The total medium volume in each well was […]. […] Controls with media only and media with bacteria only were run alongside the peptide bacteria mixed suspensions. Measurements were taken at time t=0, t=20 and t=72 hours using optical density cell plate reader. The optical density (OD) is representative of the relative amount of bacterial growth within the medium.
Interactions of bacteria E. coli, (EC) and S. aureus, (SA) with surfactants were also studied. The bacteria were grown in LB media at 37° C. with continuous shaking for 24 hours. The bacterial concentration was then adjusted such that the absorbance at 600 (A600) was controlled at ca 0.2 unit. The bacteria suspensions with surfactants were incubated in 96-well tissue culture plates. The total medium volume in each well was 200 μL. Again, surfactant concentrations of 1% were used. Controls with media only and media with bacteria only were run alongside the surfactant-bacteria mixed suspensions. Measurements were taken at time t=0, t=20 and t=72 hours using optical density cell plate reader again.

Data set [6] concerns fibroblasts Adult (HDFa) cells. The experiment in a line: MTT viability of fibroblasts over three days. The format is cell-based, human. The procedure: as §1, §2, §3
Data set [7] concerns E. coli DH5α and B. subtilis 168. The format is cell-based, Escherichia coli; Bacillus subtilis. The note with it: 1 h. The protocol: To determine antibacterial activity of peptides, survival rate curves were constructed. Bacteria (E. coli DH5α or B. subtilis 168) were incubated with peptide at varying peptide concentrations at 37° C. for 1 h. Aliquots of 2 μL were withdrawn, diluted and spread on agar plates. After overnight incubation at 37° C., the surviving bacteria were expressed as the percentage of total cells, and survival curves drawn (FIG. 4). Controls were bacteria without peptide. The minimal inhibitory concentrations (MICs) of each peptide were measured by standard microdilution method. The test was done in sterile 96-well plates in a final volume of 200 μL. Aliquots (100 μL) of a bacterial suspension at 1×10^5 (colony-forming units (CFU)/ml) in culture medium were added to […] peptide solution (2-fold serial dilutions in 10 mM PBS buffer). […] The MIC was defined as the lowest concentration of peptide for which there was no visible growth. Each determination was performed at least three times.

As a reminder, the IC50 is the point on the concentration scale where inhibition reaches its midpoint. High values mean lower potency, low ones higher potency. What is called viability is a read-out of living cells in per cent, often relative to untreated cells. For `CC[C@H](C)[C@H](NC(=O)[C@H](CCCN)NC(=O)[C@H](CCCN)NC(=O)[C@@H](NC(=O)[C@@H](NC(=O)[C@H](CCCN)NC(=O)[C@H](CCCN)NC(=O)[C@@H](NC(=O)[C@@H](NC(=O)[C@H](CCCN)NC(=O)[C@H](CCCN)NC(=O)[C@@H](NC(=O)[C@@H](NC(=O)CN)[C@@H](C)CC)[C@@H](C)CC)[C@@H](C)CC)[C@@H](C)CC)[C@@H](C)CC)[C@@H](C)CC)C(N)=O` [GO, G(IIOO)3 I-NH2] (H-GII[Orn][Orn]II[Orn][Orn]II[Orn][Orn]I-NH2), in data set [1], the half-maximal inhibitory concentration (IC50) fell in the range of 4 to 25 µM. For the same compound, in data set [2], the viability at 24 h, 5 µM stood at 95%; the viability at 24 h, 25 µM is 91%; the viability at 24 h, 50 µM was 88%; the viability at 24 h, 100 µM stood at 83%. Besides, in data set [2], the viability at 48 h, 5 µM worked out at 91%; the viability at 48 h, 25 µM was found to be 85%; the viability at 48 h, 50 µM was found to be 81%; the viability at 48 h, 100 µM was found to be 75%. Moreover, in data set [2], the viability at 72 h, 5 µM is 85%; the viability at 72 h, 25 µM was 80%; the viability at 72 h, 50 µM was 75%; the viability at 72 h, 100 µM came to 65%. Moreover, in data set [3], the viability at 24 h, 5 µM worked out at 101%; the viability at 24 h, 25 µM came to 98%; the viability at 24 h, 50 µM is 95%; the viability at 24 h, 100 µM was determined as 88%. In data set [3], the viability at 48 h, 5 µM is 95%; the viability at 48 h, 25 µM is 92%; the viability at 48 h, 50 µM turned out to be 83%; the viability at 48 h, 100 µM is 75%. In addition, in data set [3], the viability at 72 h, 5 µM worked out at 90%; the viability at 72 h, 25 µM came out at 82%; the viability at 72 h, 50 µM was 78%; the viability at 72 h, 100 µM was 70%.
For GIIKKI-NH2 [G(IIKK)I-NH2], the hemolytic activity result in data set [4] is “inactive”.
sodium lauryl ether sulphate [SLES]: in data set [5], the “antibacterial activity of surfactant alone” value (“antibacterial activity” for short) is recorded as “some antibacterial influence”. Besides, the “MTT results (relative MTT reading)” value in data set [6] worked out at 0.00.
Take cocamidopropyl aetaine [Tt]: in data set [5], the “antibacterial activity” value was “some antibacterial influence”.
Regarding `CCCCCCCCCCCC[N+](C)(C)C.[Br-]` [Helix C12TAB, Dodecyl trimethylammonium bromide], the “growth of bacteria after 72 hours” value in data set [5] (72 hours) is reported as “no growth of bacteria”. Besides, in data set [5], the “antibacterial activity” value is “significant antibacterial activity”. The “MTT results (relative MTT reading)” value was found to be 0.00 in data set [6] (HDFa, surfactant 1%, Day 1); 0.00 in data set [6] (HDFa, surfactant 1%, Day 2); 0.00 in data set [6] (HDFa, surfactant 1%, Day 3).
“GKIKKIIKKIIKII-NH2 [GKI, GKI(KKII)2 KII-NH2]” showed a half-inhibitory concentration (IC50) in data set [1] of 4 to 25 µM. In addition, in data set [2], the viability at 24 h, 5 µM came to 95%; the viability at 24 h, 25 µM was found to be 87%; the viability at 24 h, 50 µM came out at 81%; the viability at 24 h, 100 µM was 69%. For the same compound, in data set [2], the viability at 48 h, 5 µM worked out at 90%; the viability at 48 h, 25 µM was 83%; the viability at 48 h, 50 µM turned out to be 75%; the viability at 48 h, 100 µM amounted to 60%. In data set [2], the viability at 72 h, 5 µM is 88%; the viability at 72 h, 25 µM was determined as 78%; the viability at 72 h, 50 µM was found to be 71%; the viability at 72 h, 100 µM was determined as 55%. Besides, in data set [3], the viability at 24 h, 5 µM came to 95%; the viability at 24 h, 25 µM was found to be 93%; the viability at 24 h, 50 µM came to 90%; the viability at 24 h, 100 µM came to 85%. Also, in data set [3], the viability at 48 h, 5 µM was determined as 82%; the viability at 48 h, 25 µM was found to be 81%; the viability at 48 h, 50 µM was found to be 80%; the viability at 48 h, 100 µM was 75%. Besides, in data set [3], the viability at 72 h, 5 µM was found to be 81%; the viability at 72 h, 25 µM was found to be 75%; the viability at 72 h, 50 µM was 71%; the viability at 72 h, 100 µM was found to be 70%.
Regarding “GIIKKIIKKIIKKIIKKI-NH2 [Helix G4, G(IIKK)4 I-NH2]”, the “MICs (minimum inhibitory concentrations)” value in data set [7] is 0.5 to 8 µM. In data set [1], this compound displayed an IC50 of 4 to 25 µM. In addition, in data set [2], the viability at 24 h, 5 µM amounted to 95%; the viability at 24 h, 25 µM amounted to 85%; the viability at 24 h, 50 µM turned out to be 81%; the viability at 24 h, 100 µM came to 73%. In data set [2], the viability at 48 h, 5 µM is 92%; the viability at 48 h, 25 µM turned out to be 77%; the viability at 48 h, 50 µM was found to be 71%; the viability at 48 h, 100 µM worked out at 65%. In data set [2], the viability at 72 h, 5 µM stood at 79%; the viability at 72 h, 25 µM came to 74%; the viability at 72 h, 50 µM amounted to 65%; the viability at 72 h, 100 µM stood at 53%. Besides, in data set [3], the viability at 24 h, 5 µM is 90%; the viability at 24 h, 25 µM came out at 87%; the viability at 24 h, 50 µM was found to be 85%; the viability at 24 h, 100 µM turned out to be 81%. In data set [3], the viability at 48 h, 5 µM was 84%; the viability at 48 h, 25 µM was found to be 81%; the viability at 48 h, 50 µM stood at 78%; the viability at 48 h, 100 µM was determined as 70%. In data set [3], the viability at 72 h, 5 µM was determined as 81%; the viability at 72 h, 25 µM stood at 78%; the viability at 72 h, 50 µM is 65%; the viability at 72 h, 100 µM came out at 55%.
